Test results published in ChEMBL document CHEMBL1148404, “Novel heteroarotinoids as potential antagonists of Mycobacterium bovis BCG” (2004).

What follows are compounds tested on Mycobacterium tuberculosis variant bovis (assay: Antibacterial activity against Mycobacterium bovis (BCG); value ranges from 0.5-1).
Assay type: functional

| Compound | MIC [µg/mL] |
| --- | --- |
| CC(C)CCOc1ccc(NC(=S)Nc2ccc(OCCC(C)C)cc2)cc1 [TIOCARLIDE] | < 1 |

These compounds were tested on Mycobacterium tuberculosis variant bovis (assay: Antibacterial activity against Mycobacterium bovis (BCG); value ranges from 10-20).
Assay type: functional

| Compound | MIC [µg/mL] |
| --- | --- |
| CC1=CC(C)(C)N(C)c2ncc(/C=C/C(C)=C\C=N\N=C(/N)S)cc21 | < 20 |

The compounds below were run on Mycobacterium tuberculosis variant bovis (assay: Antibacterial activity against Mycobacterium bovis (BCG); value ranges from 2-4).
Assay type: functional

| Compound | MIC [µg/mL] |
| --- | --- |
| COC(=O)c1ccc(C(=O)Oc2ccc3c(c2)OC(C)(C)C=C3C)cc1 | < 4 |

What follows are compounds tested on Mycobacterium tuberculosis variant bovis (assay: Antibacterial activity against Mycobacterium bovis (BCG); value ranges from 20-40).
Assay type: functional

| Compound | MIC [µg/mL] |
| --- | --- |
| COc1ccc2c(c1/N=C(\S)Nc1ccc([N+](=O)[O-])cc1)C(C)(C)COC2(C)C | < 40 |
| CC1=CC(C)(C)N(C)c2ccc(N/C(S)=N/c3ccc([N+](=O)[O-])cc3)cc21 | < 40 |
| CCOC(=O)c1ccc(NC(=O)Nc2ccc3c(c2)C(C)=CC(C)(C)N3C)cc1 | < 40 |
| CCOC(=O)c1ccc(NC(=O)Nc2cccc3c2OC(C)(C)CC3(C)C)cc1 | < 40 |
| CC1(C)CC(C)(C)c2cccc(/N=C(\S)Nc3ccc([N+](=O)[O-])cc3)c2O1 | < 40 |
| CCOC(=O)c1ccc(N/C(S)=N/c2ccc3c(c2)C(C)(C)CC(C)(C)S3)cc1 | < 40 |
| CC1(C)CC(C)(C)c2cc(N/C(S)=N/c3ccc([N+](=O)[O-])cc3)ccc2O1 | < 40 |
| CCOC(=O)c1ccc(N/C(S)=N/c2ccc3c(c2)C(C)=CC(C)(C)N3C)cc1 | < 40 |
| CCOC(=O)c1ccc(NC(=O)Nc2ccc3c(c2)C(C)(C)CC(C)(C)O3)cc1 | < 40 |
| CCOC(=O)c1ccc(NC(=O)Nc2ccc3c(c2)C(C)(C)CC(C)(C)S3)cc1 | < 40 |
| CCOC(=O)c1ccc(N/C(S)=N/c2cccc3c2OC(C)(C)CC3(C)C)cc1 | < 40 |
| COc1ccc2c(c1NC(=S)NC(=O)c1ccc([N+](=O)[O-])cc1)C(C)(C)COC2(C)C | < 40 |

The compounds below were run on Mycobacterium tuberculosis variant bovis (assay: Antibacterial activity against Mycobacterium bovis (BCG); value ranges from 5-10).
Assay type: functional

| Compound | MIC [µg/mL] |
| --- | --- |
| CCOC(=O)c1ccc(N/C(S)=N/c2ccc3c(c2)C(C)(C)CC(C)(C)O3)cc1 | < 10 |
